According to paper PMC8537458, “Anti-Inflammatory Azaphilones from the Edible Alga-Derived Fungus Penicillium sclerotiorum” (Marine Drugs, 2021):
“Also recorded” adds a separate entry of the source.

Columns and labels:
Type in all cases: cell-based
[1] = tested on: SMAD responsive element luciferase reporter in HEK293A cells; test: SMAD transcriptional activity reporter assay; conditions: 20 ng/mL TGF-β, 24 h
Experimental: (§1) Reporter plasmids (Promega, Madison, WI, USA) with luciferase driven by NFκB or SMAD responsive elements were stably established in HEK293A cells and maintained by a puromycin-containing culture medium. Chemiluminescence levels represent the luciferase expression was determined by the ONE-Glo reagent (Promega, USA). The fold change of each group to the DMSO vehicle control group was calculated.
(§2) Statistical analysis was conducted via a one-tailed unpaired t-test in comparison compound treating group with the group only treated with TNF-α or TGF-β by Microsoft Excel software. The significance was annotated on plots of the result, * for p < 0.05, ** for p < 0.01, and *** for p < 0.001.

[2] = MTT cytotoxicity assay, summary over the cell panel; conditions: human; general density of 1 × 10^4/96-well; most cells / various cancer cells
Experimental: (§3) The cell lines A549, MCF-7, MDA-MB-231, SH-SY5Y, and WI-38 were purchased from Bioresource Collection and Research Centre (BCRC; Taiwan). […] Chin-Chung Wu (Kaohsiung Medical University, Taiwan), and HCT15 and HCT116 cells were given by Prof. Chen-Yang Shen (Academia Sinica, Taiwan). 1 × 10^3 or 1 × 10^4 cells were seeded in a 96-well one day before compounds treatment.

[3] = tested on: phospho-Smad 2(S465/467)/Smad 3(S423/425); test: TGF-β-induced Smad2/3 phosphorylation by immunoblotting; conditions: 20 ng/mL TGF-β, 30 min, CCD966SK fibroblasts, n = 3
Experimental: (§4) THP-1 monocyte cell line that was gifted from Prof. Tsung-Hsien Chang (National Defense Medical Center, Taiwan) was used to examine for TNF-α-induced NFκB phosphorylation; CCD966SK fibroblast cell line that purchased from Bioresource Collection and Research Centre (BCRC; Taiwan) was used to examine for TGF-β-induced Smad2/3 phosphorylation. The procedure of protein preparation, separation, blotting, and detection was conducted referred to previously. The primary antibodies against phospho-NFκB p65(S536), NFκB p65, phospho-Smad 2(S465/467)/Smad 3(S423/425), and Smad 2/3 were purchased from Cell Signaling (USA). The level of Gapdh expression served as an internal control for protein loading. The annotated number represents the quantified level from normalized by both NFκB p65/Smad 2/3 and Gapdh and calculated the fold change phospho-NFκB or phospho-Smad 2/3 to their DMSO vehicle control group by ImageJ software. IκB/IKK inhibitor BAY 11-7082 (Cayman) and TGFβRI inhibitor LY3200882 (Medchemexpres) as positive controls.
as §2

[4] = tested on: NFκB responsive element luciferase reporter in HEK293A cells; test: NFκB transcriptional activity reporter assay; conditions: 20 ng/mL TNF-α, 24 h, n = 6
Experimental: as §1, §2

phospho-NFκB p65(S536) = test: TNF-α-induced NFκB phosphorylation by immunoblotting; conditions: 20 ng/mL TNF-α, 30 min, THP-1 cells, n = 3
Experimental: as §4, §2

MTT cytotoxicity assay = conditions: human, SH-SY5Y neuroblastoma cells
Experimental: as §3

SH-SY5Y = test: MTT cytotoxicity assay; conditions: among seven cancer and one fibroblast cell lines
Experimental: as §3

Structure (SMILES) | TGF-β-stimulated SMAD transcriptional activity ([1]; 20 μM compound, n = 6) | IC50 at 48 h [2] | TGF-β-induced Smad2/3 phosphorylation ([3]; 20 μM compound) | NFκB transcriptional activity by reporter assay ([4]; 20 μM compound) | TNF-α-induced NFκB phosphorylation (phospho-NFκB p65(S536); 20 μM compound) | other results
CC[C@H](C)/C=C(C)/C=C/C1=CC2=C(Cl)C(=O)[C@](C)(OC(C)=O)C(=O)C2=CO1 [Compound 6, sclerotiorin] | inhibited; also recorded: decreased | > 100 µM | inhibited |  |  | 
Cc1ccc(S(=O)(=O)/C=C/C#N)cc1 [BAY 11-7082, reference compound] |  |  |  |  |  | NFκB transcriptional activity by reporter assay ([4]; 10 μM positive control): alter; TNF-α-induced NFκB phosphorylation (phospho-NFκB p65(S536); 10 μM positive control): significantly reduce
CC[C@H](C)[C@@H](O)[C@](C)(O)/C=C/C1=CC2=C(Cl)C(=O)[C@](C)(O)[C@H](OC(C)=O)[C@H]2CO1 [Compound 3, hypocrellone A] |  | > 100 µM | decrease | did not change; also recorded: remains | inhibit; also recorded: significantly reduce | 
CC[C@H](C)[C@@H](O)[C@@](C)(O)/C=C/C1=CC2=C(Cl)C(=O)[C@](C)(O)[C@H](OC(C)=O)[C@H]2CO1 [Compound 4, eupenicilazaphilone C] | increased | > 100 µM |  |  |  | 
CC[C@H](C)/C=C(C)/C=C/C1=CC2=C(Cl)C(=O)[C@](C)(O)[C@H](OC(C)=O)[C@H]2CO1 [Compound 7, isochromophilone IV] |  | > 100 µM |  | did not change; also recorded: remains | inhibit; also recorded: significantly reduce | 
CCC(C)C(O)C(C)(O)C=CC1=CC2=C(Cl)C(=O)C(C)(O)C(OC(C)=O)C2CO1 (stereo not drawn) [Compound 1, 8a-epi-hypocrellone A] | increased | > 100 µM |  | did not change; also recorded: remains | inhibit; also recorded: significantly reduce | IC50 at 48 h (MTT cytotoxicity assay; general density 1 × 10^4/96-well (Table 2)): 35.6 µM; IC50 at 48 h (MTT cytotoxicity assay; very low density 1 × 10^3/96-well (Table 3)): 26.8 µM; selective toxicity toward SH-SY5Y (SH-SY5Y): selective toxicity
CCC(C)C(O)C(C)(O)C=CC1=CC2=C(Cl)C(=O)C(C)(O)C(OC(C)=O)C2CO1 (stereo not drawn) [Compound 2, 8a-epi-eupenicilazaphilone C] | promote; also recorded: increased |  | significantly increase; also recorded: promote |  |  | 
COc1cccc2c1C(=O)c1c(O)c3c(c(O)c1C2=O)C[C@@](O)(C(=O)CO)C[C@@H]3O[C@H]1C[C@H](N)[C@H](O)[C@H](C)O1 [doxorubicin, reference compound] |  | 0.36 to 3.7 µM |  |  |  | 
CC(C)(O)c1cc(Nc2cc(Oc3cn(C4CC4)nc3C3CCOCC3)ccn2)ccn1 [LY3200882, reference compound] |  |  |  |  |  | TGF-β-stimulated SMAD transcriptional activity ([1]; 1 μM positive control, n = 6, listed as TGFβRI inhibitor): decreased; TGF-β-induced Smad2/3 phosphorylation ([3]; 1 μM positive control, listed as TGFβRI inhibitor): trend toward a decrease
CC[C@H](C)/C=C(C)/C=C/c1cc(O)c(C)c(O)c1C=O [Compound 5, ((1E,3E)-3,5-dimethylhepta-1,3-dien-1-yl)-2,4-dihydroxy-3-methylbenzaldehyde] |  | > 100 µM |  |  |  | 
